Experiments:
[1] = target: human 5-HT2A (h5-HT2A) receptor (Homo sapiens (Human), UniProt P28223); test: FLIPR assay, human 5-HT2A receptor under agonist mode; type: cell-based
Procedure: • I. Assessment of the activated effect of exemplary compounds of Formula I targeting on human 5-HT2A (h5-HT2A) receptor under agonist mode: Compound Preparation and Assay Controls I.a. Reagent and Materials:
1. Culture the cells in cell culture medium (DMEM containing 10% FBS 1× penicillin-streptomycin 300 μg/ml G418 and 100 μg/ml hygromycin B) at 37° C., 5% (v/v) CO2.
2. One day before the assays, detach the cell using TrypLE™ Express and count cells using cell counter.
3. Seed 20000 cells/well in 30 μl/well culture medium to a 384-well cell plate and incubate the cells overnight at 37° C., 5% (v/v) CO2.
4. On the assay day, prepare 2× dye solution following the manual of the FLIPR® Calcium 6 Assay Kit: i. Dilute the dye with assay buffer (20 mM HEPES in 1×HBSS, PH7.4); ii. Add probenecid to the final concentration of 5 mM; iii. Vortex vigorously for 1-2 minutes.
5. Medium from cell plate by flicking the cell plate on towel papers.
6. Add 10 μl of assay buffer and 10 μl of 2× dye solution to each well of the cell plate.
7. Put the cell plate on plate shaker, agitate the plate at 600 rpm for 2 minutes. Incubate the plate at 37° C. for 2 hours followed by additional 15-minute incubation at 25° C.
8. Prepare 3× compound in assay buffer: a. Dilute reference compounds to required concentration with DMSO. Add the compounds to a 384-well compound plate; b. Perform serial dilutions; c. Add 10 mM test compounds to the compound plate, perform 3-fold serial dilutions. d. […] Add 20 μl/well assay buffer to the compound plate; f. Mix the plate on plate shaker for 2 mins;
i. The normalized fluorescence reading (RFU) is calculated as shown follow, while Fmax and Fmin stand for maximum and minimum of calcium signal during defined time window: RFU=Fmax−Fmin
ii. Calculate the percentage activation by using following equation: […]
iii. Calculate EC50 by fitting % activation against log of compound concentrations with Hill equation using XLfit.

[2] = Liver microsomes stability, human; settings: for half-life at 2 μM / microsomal CLint at 2 μM: microsomes; for Remaining Percentage (%) after 60 min Human: with NADPH, 2 μM, 0.5 mg/mL microsomes
Procedure: (§1) The objective of this study was to estimate in vitro metabolic stability of I-12 in pooled human, male rat and male mouse liver microsomes. The concentrations of parent compounds in reaction systems were evaluated by LC-MS/MS for estimating the stability in pooled human, male rat and male mouse liver microsomes. The in vitro intrinsic clearances of test compounds were determined as well.
(§2) A master solution in the “Incubation Plate” containing phosphate buffer, ultra-pure H2O, MgCl2 solution and liver microsomes was made according to Table-3. The mixture was pre-warmed at 37° C. water bath for 5 minutes.
(§3) 40 μL of 10 mM NADPH solution was added to each well. The final concentration of NADPH was 1 mM. The negative control samples were prepared by replacing NADPH with 40 μL of ultra-pure H2O. Samples were prepared in duplicate. Negative controls were prepared in singlet.
(§4) The reaction was started with the addition of 4 μL of 200 μM exemplary test compounds of the application or control compounds to each master solution to get the final concentration of 2 μM. This study was performed in duplicate.
(§5) Aliquots of 50 μL were taken from the reaction solution at 0, 15, 30, 45 and 60 minutes. The reaction solutions were stopped by the addition of 4 volumes of cold methanol with IS (100 nM alprazolam, 200 nM imipramine, 200 nM labetalol and 2 μM ketoprofen). Samples were centrifuged at 3,220 g for 40 minutes. Aliquot of 90 μL of the supernatant was mixed with 90 μL of ultra-pure H2O and then was used for LC-MS/MS analysis.
(§6) LC/MS analysis was performed for all samples from this study using a Shimadzu liquid chromatograph separation system equipped with degasser DGU-20A5R; solvent delivery unit LC-30AD; system controller SIL-30AC; column oven CTO-30A; CTC Analytics HTC PAL System. Mass spectrometric analysis was performed using an Triple Quad™ 5500 instrument.
(§7) All calculations were carried out using Microsoft Excel. Peak area ratios of test compound to internal standard (listed in the below table) were determined from extracted ion chromatograms.
(§8) All calculations were carried out using Microsoft Excel. Peak areas were determined from extracted ion chromatograms. The slope value, k, was determined by linear regression of the natural logarithm of the remaining percentage of the parent drug vs. incubation time curve.
(§9) Conversion of the in vitro t1/2 (min) into the in vitro intrinsic clearance (in vitro CLint, in μL/min/mg proteins) was done using the following equation (mean of duplicate determinations): […]

[3] = Liver microsomes stability, rat; settings: for half-life at 2 μM / microsomal CLint at 2 μM: male, rat, microsomes; for Remaining Percentage (%) after 60 min Rat: with NADPH, 2 μM, 0.5 mg/mL microsomes
Procedure: as §1, §2, §3, §4, §5, §6, §7, §8, §9

[4] = Liver microsomes stability, mouse; settings: for half-life at 2 μM / microsomal CLint at 2 μM: male, mouse, microsomes; for Remaining Percentage (%) after 60 min Mouse: with NADPH, 2 μM, 0.5 mg/mL microsomes
Procedure: as §1, §2, §3, §4, §5, §6, §7, §8, §9

[5] = In vivo pharmacokinetics of I-28 and its metabolite I-45 in mice (i.v. and p.o.); set-up: species or system Male C57 BL/6 mice
Procedure: Male C57 BL/6 mice (25-30 g) from Charles River Labs were acclimatized for a minimum of 5 days prior to dosing. Body weights were recorded on the day of dosing.
Animals dosed p.o. were deprived of food overnight and fed ˜2 h following dosing.
Formulations were administered intravenously (i.v.) via the tail vein or orally (p.o.) by gavage with disposable feeding needles.
Serial blood samples were collected via tail snip. Terminal blood samples were collected under isoflurane anesthesia by cardiac puncture.
All blood samples were transferred into K2EDTA tubes on wet ice and centrifuged within 5 min (3200×g for 5 min at 4° C.) to obtain plasma. Plasma were stored at −80° C. until analysis.
AB Sciex QTRAP 4000 or 6500 MS/MS system equipped with an LC system with a binary pump, a solvent degasser, a thermostated column compartment and a multiplate autosampler. i. Analysis software: Phoenix® WinNonlin® 8.2 (Pharsight, Certara, Mountainview, Calif.) ii. Analysis methods: non-compartmental analysis, linear up/log down trapezoidal rule iii. PK parameters: C0, t1/2, AUC0-tlast, AUC0-∞, CL, VSS, MRT, tmax(po), Cmax(po), F, as appropriate C0 concentration extrapolated to time zero following an i.v. dose tmax time at which maximum concentration is observed Cmax maximum observed concentration Apparent t1/2 apparent terminal half-life area under the concentration vs time curve from time 0 to the time of the last AUC0-tlast measurable concentration AUC0-inf area under the concentration vs time curve from time 0 to infinity CL systemic clearance MRT0-inf mean residence time from time zero to infinity VSS steady-state volume of distribution F bioavailability=(Dose^iv*AUC^po)/(Dose^po*AUC^iv)*100

[6] = i.v., Metabolite (I-45) alone 1 mg/kg, mouse plasma
[7] = p.o., Metabolite (I-45) alone 10 mg/kg, mouse plasma
[8] = male, C57 BL/6, iv, i.v., I-28 2.2 mg/kg, I-28 in mouse plasma, n = 2

[2H]C([2H])([2H])N(C([2H])([2H])[2H])C([2H])([2H])C([2H])([2H])c1c[nH]c2cccc(O)c12 [Compound I-45, 3-(2-(bis(methyl-d3)amino)ethyl-1,1,2,2-d4)-1H-indol-4-ol]
agonist effect on h5-HT2A receptor (in words) ([1]; agonist mode, FLIPR): active agonist | half-life at 2 μM ([2]; human): 5.01 h | microsomal CLint at 2 μM ([2]; human): 4.61 µL/min/mg | Remaining Percentage (%) after 60 min Human [2]: 87.08% | half-life at 2 μM [3]: 1.76 h | microsomal CLint at 2 μM [3]: 13.1 µL/min/mg | Remaining Percentage (%) after 60 min Rat [3]: 67.47% | half-life at 2 μM [4]: 4.09 h | microsomal CLint at 2 μM [4]: 5.65 µL/min/mg | Remaining Percentage (%) after 60 min Mouse [4]: 84.40% | AUC0-inf/Dose [5, 6]: 181 ± 30.8 kg·ng·h/mL/mg | Apparent t1/2 [5, 6]: 5.32 ± 2.99 h | C0 ([5]; male, C57 BL/6, mouse, plasma, iv, 1 mg/kg): 566 ± 85 ng/mL | AUC0-inf/Dose [5, 7]: 79.5 ± 12.1 kg·ng·h/mL/mg | Apparent t1/2 [5, 7]: 4.52 ± 0.481 h | Cmax/Dose [5, 7]: 70.4 ± 12.8 kg·ng/mL/mg

[2H]C([2H])([2H])N(C([2H])([2H])[2H])C([2H])([2H])C([2H])([2H])c1c[nH]c2cccc(OC(=O)CCCCCCC/C=C\C/C=C\CCCCC)c12 [Compound I-28, 3-(2-(bis(methyl-d3)amino)ethyl-1,1,2,2-d4)-1H-indol-4-yl (9Z,12Z)-octadeca-9,12-dienoate]
EC50 [1]: 965 nM | half-life at 2 μM ([2]; human): 2.23 h | microsomal CLint at 2 μM ([2]; human): 10.4 µL/min/mg | metabolic stability in liver microsomes (in words) ([2]; human, rat and mouse liver microsomes, 60 minute): rapidly metabolized | Remaining Percentage (%) after 60 min Human [2]: 73.27% | half-life at 2 μM [3]: 0.659 h | microsomal CLint at 2 μM [3]: 35.1 µL/min/mg | Remaining Percentage (%) after 60 min Rat [3]: 34.92% | half-life at 2 μM [4]: 0.276 h | microsomal CLint at 2 μM [4]: 83.7 µL/min/mg | Remaining Percentage (%) after 60 min Mouse [4]: 8.12% | AUC0-inf/Dose (h*kg*ng/mL/mg) ([5]; i.v., I-28 2.2 mg/kg, I-28 in mouse plasma, n = 2): 62.1 (n = 2) h*kg*ng/mL/mg | C0 ([5]; male, C57 BL/6, iv, i.v., I-28 2.2 mg/kg (equimolar to 1 mg/kg metabolite), I-28 in mouse plasma): 448 ± 411 ng/mL | AUC(0-inf) [5, 8]: 137 ng·h/mL | clearance [5, 8]: 385 mL/min/kg | half-life ([5]; male, C57 BL/6, iv, i.v., I-28 2.2 mg/kg, I-28 in mouse plasma, n = 2, read-out: Apparent t1/2 (converted)): 4.92 h | MRT inf ([5]; male, C57 BL/6, iv, i.v., I-28 2.2 mg/kg, I-28 in mouse plasma, n = 2, read-out: MRT0-inf): 0.977 h | Vd ([5]; male, C57 BL/6, iv, i.v., I-28 2.2 mg/kg, I-28 in mouse plasma, n = 2, read-out: VSS): 17 L/kg | AUC(0-t) ([5]; male, C57 BL/6, iv, i.v., I-28 2.2 mg/kg, I-28 in mouse plasma, read-out: AUC0-tlast): 110 ± 85.9 ng·h/mL | Tmax ([5]; male, C57 BL/6, po, p.o., I-28 22 mg/kg (equimolar to 10 mg/kg metabolite), I-28 in mouse plasma): 2.17 ± 3.32 h | Cmax ([5]; male, C57 BL/6, po, p.o., I-28 22 mg/kg, I-28 in mouse plasma): 1.06 ± 0.447 ng/mL | Cmax/Dose ([5]; p.o., I-28 22 mg/kg, I-28 in mouse plasma): 0.0482 ± 0.0203 kg·ng/mL/mg
